The values below come from ChEMBL document CHEMBL3507680, “University of Dundee, Gates Library screen for HepG2 cell viability”.

The nature of this data set: Human HepG2 cell viability assay in 384 well format. Type of data set: toxicity, cell-based. Set-up: dose 125 nL, time 70.5 hour; concentration not given beside the values. To be noted: HepG2 cells, read-out: Inhibition.

As for `Cc1nc(N)sc1C(=O)N1CCCC(COc2ccc(F)cc2)C1` (stereo not drawn), the cytotoxicity at 70.5 h is -0.394%. To `CCNC(=O)[C@@H]1C[C@@H](NC(=O)c2ccc(C#N)cc2)CN1CCCSC` belongs 17.5%. In the case of `CC1(C)CC(C(=O)N2CCC3(CCC(=O)N(C4CC4)C3)CC2)CCO1` (stereo not drawn), the cytotoxicity at 70.5 h was -4.55%.

In the case of `O=C(NCCc1csc(-c2cnccn2)n1)c1cnn[nH]1`, the cytotoxicity at 70.5 h was 21.3%. To `O=C(CCN1CCOC(C(F)(F)F)C1)NCc1cccc(Cl)c1` (stereo not drawn) belongs -5.6%; to `O=C(O)[C@@H]1CN(C(=O)CSCC2CC2)C[C@H]1c1ccccn1`, -1.99%.

As for `CCCc1ccc(CN2CCC3(CCC(=O)N(CCO)C3)CC2)o1`, the cytotoxicity at 70.5 h was -3.93%. Take `FC(F)(F)c1cccc(OC2CCN(Cc3ncc[nH]3)CC2)c1`: the cytotoxicity at 70.5 h was -0.255%. In the case of `O=C1NCCCC12CCN(Cc1ccc(SC3CCCCC3)o1)C2` (stereo not drawn), the cytotoxicity at 70.5 h worked out at 5.14%.

Consider `CC(NC(=O)Cc1cc2c(cc1Cl)OCCO2)c1ccncn1` (stereo not drawn), for which the cytotoxicity at 70.5 h was -2.12%. To `CCc1nccn1CC(=O)N1C[C@H]2CC[C@@H]1CN(C(=O)N(C)C)C2` belongs -3.56%; to `Cn1cc(Cl)c(CN2CCn3nc(C(=O)N4CCCC4)cc3C2)n1`, -4.39%; to `O=C(C1CNCCO1)N1CCCC(c2ccccc2)(c2ccccc2)C1` (stereo not drawn), -0.462%.

As for `N#Cc1cccnc1N1CCCC(CO)(Cc2ccccc2F)C1` (stereo not drawn), the cytotoxicity at 70.5 h is -4.89%. Next, `CCCC(C)C(=O)N1CCC(c2cc(N3CCOCC3)nc(C)n2)CC1` (stereo not drawn): -1.55%; `COc1cccc(-c2cc(NCCO)nc3[nH]ccc23)n1`: -10.9%. Consider `CCS(=O)(=O)CCNC1CCN(c2nc3ccc(Cl)cc3s2)CC1`, for which the cytotoxicity at 70.5 h was determined as 4.49%. Next, `CC(O)C(=O)N1CCC(c2nccn2Cc2cscn2)CC1` (stereo not drawn): 23.7%; `CN1CCC2(CC1)CCN(C(=O)c1onc3ccccc13)C2`: -6.04%. Take `CC(CN1CCCCCC1)NCc1nncn1C1CCCCC1` (stereo not drawn): the cytotoxicity at 70.5 h is -6.55%. As to `COCCCC1CCCCN1C(=O)c1ccc(SCCO)cc1` (stereo not drawn), the cytotoxicity at 70.5 h worked out at 6.41%. Take `Cc1nnsc1CN(C)C(=O)c1ccc(CSc2nnc[nH]2)o1`: the cytotoxicity at 70.5 h was -10.2%. As to `COc1cccc(C(=O)N2C[C@@H](C(=O)O)[C@H](c3ccccc3C)C2)c1`, the cytotoxicity at 70.5 h worked out at 6.74%. Turning to `Cc1cc(N2CCCC(c3[nH]ncc3Cc3ccccc3)C2)nc(N)n1` (stereo not drawn), the cytotoxicity at 70.5 h stood at 11.1%. Next, `OC1CCCOC12CCN(c1ncccn1)CC2` (stereo not drawn): 15.7%; `Cc1nc(N2CCC3(CCCN(CCO)C3=O)C2)c2sccc2n1` (stereo not drawn): -7.31%. Next, `COCc1nc(C2CC2)nn1-c1ccccc1Cl`: -2.98%.

On to `COc1ccccc1C1CNC(=O)c2nc(-c3cn(C)nc3C)[nH]c2C1` (stereo not drawn), for which the cytotoxicity at 70.5 h turned out to be 8.73%. To `CN(C)CC1(O)CCCN(C(=O)c2ccccc2-n2cncn2)C1` (stereo not drawn) belongs -3.77%; to `CC(=O)NCCNC(=O)C1(N2CCCCC2)Cc2ccccc2C1`, -7.44%; to `Cc1ccc(C(=O)O)cc1-c1cccc2c1CCNC2`, -21%.

Take `Cc1ccc2[nH]c(=O)cc(C(=O)N[C@@H]3C[C@@H](CO)N(C)C3)c2c1`: the cytotoxicity at 70.5 h is -14.7%.

As to `COCc1nc(C2CC2)nn1-c1cccc(F)c1`, the cytotoxicity at 70.5 h is -7.42%. `CC(C)c1cc(C2CCN(C(=O)Cn3cnc4ccccc43)CC2)[nH]n1`: the cytotoxicity at 70.5 h worked out at 4.36%. Next, `COCc1cc(N2CCOC(c3ccc(Cl)c(Cl)c3)C2)ncn1` (stereo not drawn): -12.1%; `CCc1ccc(C2CC(=O)Nc3cc(OC)c(NS(C)(=O)=O)cc32)o1` (stereo not drawn): -3.63%. Next, `COc1ccc(CN(Cc2cnn(C)c2)CC(C)C)cn1`: -6.19%; `O=C(c1cc2ccccc2[nH]c1=O)N1CCC2(CCCNC2)C1` (stereo not drawn): -4.47%; `Cc1cccc(-n2nc(CC(C)C)nc2CS(C)(=O)=O)c1`: -2.84%.

As to `CCC(C)N(Cc1c[nH]c(C)n1)Cc1ccccc1Cl` (stereo not drawn), the cytotoxicity at 70.5 h was -8.23%. `CSCCC(=O)N1C[C@@H](C)[C@](O)(C(C)C)C1`: the cytotoxicity at 70.5 h is -9.47%. Next, `CCC[C@H]1CN(C2CCOCC2)C[C@@H]1NC(=O)CCn1ccnc1C`: 3.94%; `Cc1cnc(CNC(=O)CCCn2cnc3ccccc3c2=O)cn1`: 6.51%. Next, `CCN(C)S(=O)(=O)NC(C)c1cnc(N(C)C2CCCCC2)nc1C` (stereo not drawn): -4.92%; `Cc1ncc(C(=O)N2CCC(N3CCc4ccccc4C3)CC2)c(O)n1`: 2.23%; `Cn1nc(CO)c2c1CCN(c1ncnc3c1CCNCC3)C2`: -6.13%. Next, `O=C1[C@@H]2CN(c3ncccc3Cl)C[C@]2(C(=O)O)CN1CC1CC1`: -7.05%. Consider `Cn1cc(CN2CCC(CCC(=O)Nc3ccccc3Cl)CC2)cn1`, for which the cytotoxicity at 70.5 h came out at 4.76%. In the case of `O=C(Cc1ccc(F)cc1Cl)N1CC[C@H](CO)[C@@H](O)C1`, the cytotoxicity at 70.5 h worked out at 9.17%. Next, `COC[C@@]12CC[C@@H](N3CCOCC3)C[C@H]1CCN(c1ncccc1C)C2`: -0.155%; `CCNc1ccnc(NC2CCN(C(=O)c3ccc(C)cc3)CC2)n1`: -13.3%; `Cc1cc(C)cc(N2CCN(Cc3cccnc3)CC2=O)c1`: -7.86%. To `Cc1ccsc1-c1cc(C(=O)O)cc(S(=O)(=O)NCc2ccccn2)c1` belongs -9.5%; to `CSc1cccc(CN(C)C(=O)Nc2nc(C)n(C)n2)c1`, -3.93%; to `CCn1cc(CNC2CCN(c3cccc(C)c3C)CC2)cn1`, -6.01%.

In the case of `CNc1nc(C)c(C(=O)N2C[C@H]3CC[C@@H]2CN(c2cnccn2)C3)s1`, the cytotoxicity at 70.5 h was -6.37%.

With `CCc1c(C)nc(C)nc1N1C[C@@H](CN(CC)CCO)[C@@H](CO)C1`, the cytotoxicity at 70.5 h amounted to 10.3%.

`Cc1nc(-c2cccc(N3CCC(NC4CCOCC4)CC3)c2)cs1`: the cytotoxicity at 70.5 h is -3.92%. For `c1ccc(Cn2cc(CNc3ncnc4c3CCNCC4)cn2)cc1`, the cytotoxicity at 70.5 h is -15%. As for `CCCC1(NC(=O)C(c2ccc(F)cc2)N(C)C)CC1` (stereo not drawn), the cytotoxicity at 70.5 h was determined as 10.6%. Next, `Cc1c(NCc2cccnc2)cccc1C(=O)N1CCC(N(C)C)C1` (stereo not drawn): -5.39%; `Cc1cc(C(F)(F)F)cc(N2C[C@@H](CN3CCOCC3)[C@@H](CO)C2)n1`: -16.2%.

As for `COc1ccccc1CC(=O)N1CCC(OCc2cccnc2)CC1`, the cytotoxicity at 70.5 h is -13.8%. On to `O=S1(=O)COCCN1Cc1ccc(F)c(F)c1`, for which the cytotoxicity at 70.5 h is -7.08%. With `CCc1oc(C(=O)NCCNS(C)(=O)=O)cc1CN1CCCC1`, the cytotoxicity at 70.5 h turned out to be 11.7%. To `CC(=O)N[C@@H](C)C(=O)NCc1cccnc1Oc1ccccc1F` belongs -11.6%. Next, `CCC[C@@H]1CN(Cc2ccccc2C#N)C[C@H]1NC(C)=O`: -1.98%. Next, `CN(Cc1cccc(-n2cccn2)c1)C(=O)c1ccnc(N)c1`: 3.21%; `N#Cc1nccnc1N1CCC(C(O)c2cccs2)CC1` (stereo not drawn): 10.4%; `Cc1ccc2c(c1)SCC(=O)N2CC(=O)N1CCCC1c1cc(C)no1` (stereo not drawn): 12.8%. With `CN(c1ccc(C(=O)NCCCN2CCCC2)c(Cl)c1)S(C)(=O)=O`, the cytotoxicity at 70.5 h stood at 17.4%. Consider `O=C1CCc2cc(S(=O)(=O)NCc3cc4n(n3)CCCNC4)ccc2N1`, for which the cytotoxicity at 70.5 h is -12.2%.

With `Cc1nc(N2CCN(C(=O)c3ccccc3)CC2)cc(-n2ccnc2)n1`, the cytotoxicity at 70.5 h was 10.7%. For `COc1ccc(C)cc1-n1cnnc1C1CCOCC1`, the cytotoxicity at 70.5 h was -2.32%. `O=c1[nH]c(NC2CCCC2)nc2nccc(-c3ccsc3)c12`: the cytotoxicity at 70.5 h was -4.5%. For `Cc1nc2c(c(NCCNC(=O)C(C)C)n1)Cc1ccccc1OC2`, the cytotoxicity at 70.5 h was -6.01%.

As for `CC(C)Nc1cc(N2CCC(n3cc(C4CCCC4)nn3)CC2)ncn1`, the cytotoxicity at 70.5 h was -8.81%. On to `Cc1cc(C)n(-c2ccc(NCCNS(=O)(=O)c3ccccc3)nn2)n1`, for which the cytotoxicity at 70.5 h was -5.4%. Next, `CCCOC1CCCN(C(=O)c2cnc(-c3csc(C)n3)nc2O)C1` (stereo not drawn): -6.67%; `CN(C(=O)c1ccc(C2CCCO2)s1)C1CCS(=O)(=O)CC1` (stereo not drawn): 2.73%; `COc1ccc(-c2ccccc2CCN)c(OC)c1OC`: 6.2%. For the compound `CCc1ccccc1OCCCN(C)C(=O)C1CCCN1C(N)=O` (stereo not drawn), the cytotoxicity at 70.5 h was -8.96%. Next, `CN(C)C(=O)C1(Oc2ccc(Cl)cc2)CCNCC1`: -3.42%; `O=C(Cc1n[nH]c(-c2cncc(Br)c2)n1)NCc1ccncc1`: -9.88%.

Regarding `CSc1ccccc1C(=O)Nc1ccc(OC2CCN(C)CC2)cc1`, the cytotoxicity at 70.5 h stood at 17.4%. To `CCC(NC(=O)C1CCN(S(C)(=O)=O)CC1)c1ccc(C)cc1C` (stereo not drawn) belongs -4.73%; to `CCCC1(NC(=O)C(c2ccccc2C)N(C)C)CC1` (stereo not drawn), -5.65%; to `C/C=C(\C)CN1C[C@H](NC(=O)c2cnc(O)cn2)C[C@H]1C(=O)NCC`, -9.9%.

With `O=C(NCCc1nccs1)c1cn(CCN2CCNCC2)nn1`, the cytotoxicity at 70.5 h is -2.39%. To `CC(Oc1ccc(F)cc1F)C(=O)N1CCC2(CCCO2)CC1` (stereo not drawn) belongs 27%; to `CCN(Cc1ccncc1)C(=O)c1cn(CCCc2ccccc2)nn1`, -12.5%; to `Cc1ccc(-c2ccc(Cl)nn2)cc1S(N)(=O)=O`, -7.63%. To `CCC(C(=O)NCc1cccnc1)N(c1cccc(C)c1)S(C)(=O)=O` (stereo not drawn) belongs 6.87%; to `CC(C)Cn1cncc1-c1nc2c([nH]1)CC(C)(C)CNC2=O`, 4.26%. Next, `CCc1ccccc1OCCN(C)C(=O)CN1CCCC1`: -6.67%; `CCNC(=O)C(C)Oc1ccc(N(C)S(C)(=O)=O)cc1` (stereo not drawn): -5.5%.

With `Cn1ccc2cc(C(=O)N3CCOCC3)ccc21`, the cytotoxicity at 70.5 h was -9.22%. Next, `COc1ccc(NC(=O)c2cc3c([nH]c2=O)CCCC3=O)c(OC)c1`: -10.9%.
